Measurements published in article PMC8693235, “Biocatalytic kinetic resolution of D,L-pantolactone by using a novel recombinant D-lactonase” (RSC Advances, 2020).

Biological target: T1, TSDL (D-lactonase) (Thermothielavioides terrestris, UniProt G2R1T8)
T1 construct: gene THITE_2046186; 421 aa, about 45 kDa on SDS-PAGE; pET-28a(+) NcoI/XhoI, E. coli BL21(DE3), intracellular; used as whole cells
T1 sequence (G2R1T8 1-421): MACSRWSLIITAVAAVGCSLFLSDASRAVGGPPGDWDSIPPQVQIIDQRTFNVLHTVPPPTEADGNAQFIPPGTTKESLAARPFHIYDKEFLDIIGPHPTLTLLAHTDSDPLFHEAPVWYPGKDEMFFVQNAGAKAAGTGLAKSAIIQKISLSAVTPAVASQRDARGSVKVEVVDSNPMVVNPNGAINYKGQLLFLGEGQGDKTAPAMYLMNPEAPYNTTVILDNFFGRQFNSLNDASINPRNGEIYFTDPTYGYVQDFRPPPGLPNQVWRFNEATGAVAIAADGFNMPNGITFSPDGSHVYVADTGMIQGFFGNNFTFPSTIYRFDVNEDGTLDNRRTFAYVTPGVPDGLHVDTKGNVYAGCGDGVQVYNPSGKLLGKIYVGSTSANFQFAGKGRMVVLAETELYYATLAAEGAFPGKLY
Assay: whole-cell hydrolysis of D,L-pantolactone, HPLC and chiral HPLC
Format: cell-based
Details: racemic D,L-pantolactone; recombinant E. coli (TSDL) whole cells; pH 7.0, 30 °C; 5% NH3·H2O for pH control

## CC1(C)COC(=O)[C@@H]1O [D-PL, D-pantolactone]
  whole-cell hydrolysis of D,L-pantolactone, HPLC and chiral HPLC: The recombinant TSDL exhibited high hydrolysis activity and enantioselectivity toward D-PL
